From patent US20120225093A1, “Abrogating HIV-1 Infection via Drug-Induced Reactivation of Apoptosis” (UNIVERSITY OF MEDICINE AND DENTISTRY OF NEW JERSEY, priority 2010, published 2012)

Assays:
Assay type in all cases: cell-based
[1] = tested on: H9-HIV cells; experiment: Mitochondrial membrane potential (JC-1) in H9-HIV cells; conditions: for Δψ collapse at low drug concentrations: 5 and 15 μM CPX, 50 and 100 μM DEF; for collapse of Δψ, infected versus uninfected cells: 24 hr, 30 μM CPX, 200 μM DEF
Experimental: The potential across the mitochondrial membrane of live cells was determined flow-cytometrically with the lipophilic cationic fluorochrome JC-1 (5,5′,6,6′-tetrachloro-1,1′,3,3′-tetraethylbenzimidazolcarbocyanine iodide) immediately after sample harvest (BD™ Mitoscreen Kit, BD Biosciences; San Diego, Calif.). DNA fragmentation was quantified flow-cytometrically, using a TUNEL (terminal deoxynucleotide transferase dUTP nick end-labeling) assay (APO-BRDU™; Phoenix Flow Systems; San Diego, Calif.) and a dual-color assay for annexin V binding and 7-AAD exclusion (Annexin V-PE 7-AAD Apoptosis Detection Kit I™; BD Biosciences Pharmingen, San Jose, Calif.). The apoptotic volume decrease of cells was assessed by the reduction of their diameter (VI-CELL™; Beckman Coulter; Fullerton, Calif.).
Next the effect of the drugs on apoptosis in H9 and H9-HIV cells was examined. Both CPX and DEF increased the collapse of Δψ in a manner that was dose-dependent and accentuated by viral infection (FIGS. 8E and F). […] Thus, exposure to CPX or DEF counteracted the HIV-mediated reduction of Δψ collapse and rendered infected cells more susceptible than uninfected cells to an early step in drug-induced apoptosis.

[2] = tested on: HIV-1 RNA; experiment: RNase protection assay of HIV RNA from molecular clones in 293T cells; conditions: for accumulation of FF mRNA: pNL4-3-LucE- in 293T; for reduction of spliced and unspliced HIV RNAs: pNL4-3-LucE-, cytoplasmic and nuclear fractions, 12 hr
Experimental: 293T cells (2×10^6 cells) were seeded in 10-cmdiameter plates and transfected 20 hr later by using Transfectene (Bio-Rad) and treated with compounds. Cells were harvested at 15 hr post-transfection and suspended in a low salt buffer (10 mM Tris.HCl pH 7.4, 10 mM NaCl, 1.5 mM MgCl2, and 0.5% NP-40). Cells were vortexed for 10 sec and incubated on ice for 10 min. Cell extracts were centrifuged at 500×g for 3 min, followed by cytoplasmic and nuclear RNA isolation from the supernatant and the pellet, respectively, using Trizol (Invitrogen) according to the manufacturer's instructions.
RPA was performed with 10 μg of cytoplasmic RNA and 5 μg of nuclear RNA, using the RPAIII kit from Ambion (Austin, Tex.) according to the manufacturer's instructions. Synthesis of radiolabeled RNA and protection assays were performed as described in Young et al. Mol Cell Biol 2003, 23:6373-6384. To generate antisense RNA probe against the HIV-1 major splice site, firefly luciferase and Renilla luciferase pBSII-KS+HIV (+80-341), pSP-luc and pSP-rluc were linearized with HindIII, XbaI and BsaI, respectively. The resulting probes were 309, 390 and 245 nt long, respectively. The antisense HIV-1 leader RNA probe complementary to nt+83 to −117 of the LTR was generated by subcloning between the XbaI and HindIII sites of the pcDNA3.1 vector. Antisense probe corresponding to the N terminus of eIF5A was generated by subcloning 250 nt of its cDNA sequence into pcDNA3.1.
Next, the effects of CPX and DEF on viral mRNA expression were examined. […] To determine whether the action of CPX and DEF is exerted at the level of the accumulation, splicing or nucleo-cytoplasmic distribution of HIV RNA, pNL4-3-LucE- was transfected into 293T cells and monitored spliced and unspliced HIV RNA after drug treatment. RNase protection assays were carried out using a probe complementary to the 5′ region of all HIV-1 transcripts (Zheng et al. Nat Cell Biol 2003, 5:611-618). The probe spans the major splice donor site so two sizes of protected fragments are generated: unspliced RNA protects an RNA fragment 50 nucleotides (nt) longer than that from spliced RNAs (FIG. 4A). CPX and DEF, but not P2, reduced the level of both spliced and unspliced RNAs by ˜50% (FIG. 4B). […] In contrast, the production of Renilla luciferase RNA driven by the CMV promoter was unchanged in the nucleus and cytoplasm after drug treatment (FIG. 4B). […]
The rev-defective molecular clone pMRev(−) contains the entire HIV-1 genome but Rev expression is prevented by substitutions in its initiation codon. To compare the inhibitory effect of CPX and DEF in the presence and absence of Rev, cells were transfected with pMRev(−), either with or without a Rev expression vector, and RNA was analyzed by RPA as above. […]

[3] = tested on: HIV-1; experiment: Persistent PBMC infection model, long-term culture with drug withdrawal; conditions: for rebound of HIV-1 infection after drug withdrawal: off-drug inspection period extending to 12 weeks
Experimental: Uninfected (5×10^6 cells) and infected PBMCs (0.5×10^6 cells) were co-incubated in a 25 ml culture flask at a final concentration of 0.22×10^6 cells/ml. Cultures were allowed to establish productive infection, defined by medium p24 at or above 250 pg/ml, and CPX was added. Cultures were replenished with Medium B and freshly isolated uninfected PBMCs on alternate days. For replacement of Medium B, half of the supernatant was gently exchanged without disturbing the cells, and the drug concentration was adjusted appropriately. For replacement with freshly isolated, stimulated and uninfected PBMCs, half of the cells and supernatant were removed and replaced with 2.5×10^6 cells in the proper volume of Medium B, with adjustment of the drug concentration. Cell-free supernatants were saved for p24 and viral RNA measurements.
p24 core antigen in the supernatant was quantified by ELISA (Retrotek HIV-1 p24™; ZeptoMetrix Corp.; Buffalo, N.Y.). HIV-1 RNA copy number in the supernatant was determined with a PCR-based and FDA-approved assay (Amplicor HIV-1 Monitor™; Roche Diagnostics Corp.; Indianapolis, Ind.). IFN-γ and IL-10 in the supernatant were determined by cytometric bead array (Human Th1/Th2 Cytokine Kit II™; BD Biosciences Pharmingen, San Jose, Calif.).
Next, assays were carried out to examine whether CPX can control established HIV-1 infection in primary cells. Long-term PBMC cultures were employed as a model for on-going, self-sustaining HIV-1 production. As before, infection was initiated by exposure to patient isolate-infected cells. To emulate the bulk flow of susceptible cells from a generative into an infective compartment that occurs in vivo, a replenishment protocol was followed. Freshly isolated uninfected primary cells were infused into the infected cultures at regular intervals during multi-month monitoring of viral parameters. HIV-1 RNA reached the range of 10^6 copies/ml within a week of patient isolate inoculation, and this robust infection was sustained for >3 months (FIG. 14; open squares).

[4] = CPX 30 μM from day 7 for one month, isolate #990,010

`Cc1c(O)c(=O)ccn1C` [DEF, 3-hydroxy-1,2-dimethylpyridin-4(1H)-one] was tested, and the “Δψ collapse at low drug concentrations” value [1] was “enhanced Δψ collapse even at low drug concentrations”, the “collapse of Δψ, infected versus uninfected cells” value [1] was “significantly increased collapse of Δψ compared to uninfected cells” and the “accumulation of FF mRNA” value [2] was “decreased accumulation of FF mRNA”. The “reduction of spliced and unspliced HIV RNAs” value [2] was roughly 50% and the “rebound of HIV-1 infection after drug withdrawal” value [3] was “productive infection does not return after drug removal”.

With `Cc1cc(C2CCCCC2)n(O)c(=O)c1` [CPX, 6-cyclohexyl-1-hydroxy-4-methylpyridin-2[1H]-one] the “Δψ collapse at low drug concentrations” value [1] was “enhanced Δψ collapse even at low drug concentrations”, the “collapse of Δψ, infected versus uninfected cells” value [1] was “significantly increased collapse of Δψ compared to uninfected cells” and the “accumulation of FF mRNA” value [2] was “decreased accumulation of FF mRNA”. The “reduction of spliced and unspliced HIV RNAs” value [2] was roughly 50%, the “day after which viral RNA was not detected” value ([3]; CPX 30 μM from day 7) was greater than 38 days and the “day after which viral protein was not detected” value ([3]; CPX 30 μM from day 7) was greater than 21 days. For the same molecule, the “decline in HIV-1 RNA levels” value ([3]; CPX 30 μM from day 7) was “four orders of magnitude”, the “level of p24” value [3, 4] was “to the limit of detectability” and the “level of viral RNA” value [3, 4] was “to the limit of detectability”. For the same molecule, the “rebound of HIV-1 infection after drug withdrawal” value [3] was “productive infection does not return after drug removal”.
